Source: patent US20250188069A1, “COMPOUNDS AND METHODS FOR DEGRADING CASEIN KINASE 1 ALPHA” (PIN THERAPEUTICS, INC., priority 2022, published 2025)
Where a name gives a salt, the structure may show the parent alone. Read-outs that look alike come from different tables or passages of the source.

Test system: MV-4-11 cells
Assay: AML cell viability assay (RealTime-Glo)
Assay type: cell-based
Conditions: Homo sapiens, MV4-11, IC50 class, MV-4-11 cells, read-out: Cell viability classification
[1] = RealTime-Glo after 44 hrs of treatment (TABLE 4)
[2] = RealTime-Glo after 44 hrs of treatment (TABLE 5)

Row | SMILES | IC50 [1] | IC50 [2]
1 | O=C1CCC(N2Cc3c(cccc3N(CCC3CC3)[C@H]3CC[C@@H](NCC4(F)CCC4)CC3)C2=O)C(=O)N1 (stereo partly drawn) [Compound 613A, 3-{4-[(2-cyclopropylethyl)[(1s,4s)-4-{[(1-fluorocyclobutyl)methyl]amino}cyclohexyl]amino]-1-oxo-3H-isoindol-2-yl}piperidine-2,6-dione] | 100 to 1000 nM | –
2 | O=C1CCC(N2Cc3c(cccc3N(CCC3CC3)[C@H]3CC[C@H](NCC4(C(F)(F)F)CCC4)CC3)C2=O)C(=O)N1 (stereo partly drawn) [Compound 614, 3-{4-[(2-cyclopropylethyl)[(1r,4r)-4-({[1-(trifluoromethyl)cyclobutyl]methyl}amino)cyclohexyl]amino]-1-oxo-3H-isoindol-2-yl}piperidine-2,6-dione; trifluoro acetate] | 100 to 1000 nM | –
3 | O=C1CCC(N2Cc3c(ccc(F)c3N(CCC3CC3)[C@H]3CC[C@H](NCC4(C(F)(F)F)CC4)CC3)C2=O)C(=O)N1 (stereo partly drawn) [Compound 619, 3-(4-((2-cyclopropylethyl)(4-(((1-(trifluoromethyl)cyclopropyl)methyl)amino)cyclohexyl)amino)-5-fluoro-1-oxoisoindolin-2-yl)piperidine-2,6-dione] | 100 to 1000 nM | –
4 | O=C1CCC(N2Cc3c(N(CCC4CC4)[C@H]4CC[C@H](NCC5(C(F)(F)F)CC5)CC4)ccc(F)c3C2=O)C(=O)N1 (stereo partly drawn) [Compound 627, 3-{4-[(2-cyclopropylethyl)[(1r,4r)-4-({[1-(trifluoromethyl)cyclopropyl]methyl}amino)cyclohexyl]amino]-7-fluoro-1-oxo-3H-isoindol-2-yl}piperidine-2,6-dione] | > 1000 nM | –
5 | O=C1CCC(N2Cc3c(cccc3N(CCCCC(F)(F)F)[C@H]3CC[C@H](NCC4(C(F)(F)F)CC4)CC3)C2=O)C(=O)N1 (stereo partly drawn) [Compound 628, 3-(1-oxo-4-{[(1r,4r)-4-({[1-(trifluoromethyl)cyclopropyl]methyl}amino)cyclohexyl](5,5,5-trifluoropentyl)amino}-3H-isoindol-2-yl)piperidine-2,6-dione; trifluoroacetate] | 100 to 1000 nM | –
6 | O=C1CCC(N2Cc3c(cccc3N(CCC3CC3)[C@H]3CC[C@H](NCCCC(F)(F)F)CC3)C2=O)C(=O)N1 (stereo partly drawn) [Compound 642] | – | < 100 nM
7 | O=C1CCC(N2Cc3c(cccc3N(CCC3CC3)[C@H]3CC[C@H](NCC(F)(F)C(F)(F)F)CC3)C2=O)C(=O)N1 (stereo partly drawn) [Compound 644] | – | > 1000 nM
8 | O=C1CCC(N2Cc3c(cccc3N(CCC3CC3)[C@H]3CC[C@H](NCCC4(C(F)(F)F)CC4)CC3)C2=O)C(=O)N1 (stereo partly drawn) [Compound 645, 3-{4-[(2-cyclopropylethyl)[(1r,4r)-4-({2-[1-(trifluoromethyl)cyclopropyl]ethyl}amino)cyclohexyl]amino]-1-oxo-3H-isoindol-2-yl}piperidine-2,6-dione trifluoroacetic acid] | – | < 100 nM
9 | O=C1CCC(N2Cc3c(cccc3N(CCC3CC3)[C@H]3CC[C@H](NCCOC(F)(F)F)CC3)C2=O)C(=O)N1 (stereo partly drawn) [Compound 647] | – | < 100 nM
10 | CCCN(c1cccc2c1CN(C1CCC(=O)NC1=O)C2=O)[C@H]1CC[C@H](NCCC(F)(F)F)CC1 (stereo partly drawn) [Compound 648, 3-(1-oxo-4-{propyl[(1r,4r)-4-[(3,3,3-trifluoropropyl)amino]cyclohexyl]amino}-3H-isoindol-2-yl)piperidine-2,6-dione trifluoroacetic acid] | – | < 100 nM
11 | O=C1CCC(N2Cc3c(cccc3N(CC3CCC3)[C@H]3CC[C@H](NCCC(F)(F)F)CC3)C2=O)C(=O)N1 (stereo partly drawn) [Compound 649, 3-{4-[(cyclobutylmethyl)[(1r,4r)-4-[(3,3,3-trifluoropropyl)amino]cyclohexyl]amino]-1-oxo-3H-isoindol-2-yl}piperidine-2,6-dione trifluoroacetic acid] | – | 100 to 1000 nM
12 | O=C1CCC(N2Cc3c(cccc3N(CC3CC3)[C@H]3CC[C@H](NCC4(C(F)(F)F)CC4)CC3)C2=O)C(=O)N1 (stereo partly drawn) [Compound 653, 3-(4-((cyclopropylmethyl)((1r,4r)-4-(((1-(trifluoromethyl)cyclopropyl)methyl)amino)cyclohexyl)amino)-1-oxoisoindolin-2-yl)piperidine-2,6-dione formate] | – | 100 to 1000 nM
13 | O=C1CCC(N2Cc3c(cccc3N(CC3CCC3)[C@H]3CC[C@H](NCC4(C(F)(F)F)CC4)CC3)C2=O)C(=O)N1 (stereo partly drawn) [Compound 654, 3-(4-((cyclobutylmethyl)((1r,4r)-4-(((1-(trifluoromethyl)cyclopropyl)methyl)amino)cyclohexyl)amino)-1-oxoisoindolin-2-yl)piperidine-2,6-dione] | – | 100 to 1000 nM
14 | O=C1CCC(N2Cc3c(cccc3N(CCC3CC3)C3CCC4(CC3)COCCN4)C2=O)C(=O)N1 (stereo not drawn) [Compound 679, 3-(4-((2-cyclopropylethyl)(4-oxa-1-azaspiro[5.5]undecan-9-yl)amino)-1-oxoisoindolin-2-yl)piperidine-2,6-dione] | – | 100 to 1000 nM
15 | O=C1CCC(N2Cc3c(cccc3N(CCC3CC3)[C@H]3CC[C@H](CNCCC(F)(F)F)CC3)C2=O)C(=O)N1 (stereo partly drawn) [Compound 708, 3-(4-((2-cyclopropylethyl)((1r,4r)-4-(((3,3,3-trifluoropropyl)amino)methyl)cyclohexyl)amino)-1-oxoisoindolin-2-yl)piperidine-2,6-dione] | – | 100 to 1000 nM
16 | O=C1CCC(N2Cc3c(cccc3N(CCC3CC3)[C@H]3CC[C@H](N4CCC5(C4)CC5(F)F)CC3)C2=O)C(=O)N1 (stereo partly drawn) [Compound 711, 3-(4-((2-cyclopropylethyl)((1r,4r)-4-(1,1-difluoro-5-azaspiro[2.4]heptan-5-yl)cyclohexyl)amino)-1-oxoisoindolin-2-yl)piperidine-2,6-dione 2,2,2-trifluoroacetate] | – | 100 to 1000 nM
17 | O=C1CCC(N2Cc3c(cccc3N(CCC3CC3)[C@H]3CC[C@H](N4CC[C@H](C(F)(F)F)C4)CC3)C2=O)C(=O)N1 (stereo partly drawn) [Compound 712, 3-(4-((2-cyclopropylethyl)((1S,4r)-4-((S)-3-(trifluoromethyl)pyrrolidin-1-yl)cyclohexyl)amino)-1-oxoisoindolin-2-yl)piperidine-2,6-dione 2,2,2-trifluoroacetate] | – | 100 to 1000 nM
18 | O=C1CCC(N2Cc3c(cccc3N(CCC3CC3)[C@H]3CC[C@H](N4CC[C@@H](C(F)(F)F)C4)CC3)C2=O)C(=O)N1 (stereo partly drawn) [Compound 713, 3-(4-((2-cyclopropylethyl)((1R,4r)-4-((R)-3-(trifluoromethyl)pyrrolidin-1-yl)cyclohexyl)amino)-1-oxoisoindolin-2-yl)piperidine-2,6-dione bis(2,2,2-trifluoroacetate)] | – | 100 to 1000 nM

Next, values leading:

Row | IC50 [1] | IC50 [2] | SMILES
19 | > 1000 nM | – | O=C1CCC(N2Cc3c(cccc3N(CCC3CC3)[C@H]3CC[C@@H](NCC4(C(F)(F)F)CCC4)CC3)C2=O)C(=O)N1 (stereo partly drawn) [Compound 614A, 3-{4-[(2-cyclopropylethyl)[(1s,4s)-4-({[1-(trifluoromethyl)cyclobutyl]methyl}amino)cyclohexyl]amino]-1-oxo-3H-isoindol-2-yl}piperidine-2,6-dione; trifluoro acetate]
20 | 100 to 1000 nM | – | O=C1CCC(N2Cc3c(cccc3N(CCC3CC3)[C@H]3CC[C@@H](NCC4(F)COC4)CC3)C2=O)C(=O)N1 (stereo partly drawn) [Compound 616A, 3-{4-[(2-cyclopropylethyl)[(1s,4s)-4-{[(3-fluorooxetan-3-yl)methyl]amino}cyclohexyl]amino]-1-oxo-3H-isoindol-2-yl}piperidine-2,6-dione; trifluoroacetate]
21 | > 1000 nM | – | O=C1CCC(N2Cc3c(N(CCC4CC4)[C@H]4CC[C@@H](NCC5(C(F)(F)F)CC5)CC4)ccc(F)c3C2=O)C(=O)N1 (stereo partly drawn) [Compound 627A, 3-{4-[(2-cyclopropylethyl)[(1s,4s)-4-({[1-(trifluoromethyl)cyclopropyl]methyl}amino)cyclohexyl]amino]-7-fluoro-1-oxo-3H-isoindol-2-yl}piperidine-2,6-dione]
22 | > 1000 nM | – | O=C1CCC(N2Cc3c(cccc3N(CCCCC(F)(F)F)[C@H]3CC[C@@H](NCC4(C(F)(F)F)CC4)CC3)C2=O)C(=O)N1 (stereo partly drawn) [Compound 628A, 3-(1-oxo-4-{[(1s,4s)-4-({[1-(trifluoromethyl)cyclopropyl]methyl}amino)cyclohexyl](5,5,5-trifluoropentyl)amino}-3H-isoindol-2-yl)piperidine-2,6-dione; trifluoroacetate]
23 | > 1000 nM | – | O=C1CCC(N2Cc3c(cccc3N(CCCCC(F)(F)F)[C@H]3CC[C@@H](NCCC(F)(F)F)CC3)C2=O)C(=O)N1 (stereo partly drawn) [Compound 636A, 3-(1-oxo-4-{[(1s,4s)-4-[(3,3,3-trifluoropropyl)amino]cyclohexyl](5,5,5-trifluoropentyl)amino}-3H-isoindol-2-yl)piperidine-2,6-dione; trifluoroacetate]
24 | – | 100 to 1000 nM | CN(CCC(F)F)[C@H]1CC[C@@H](N(CCC2CC2)c2cccc3c2CN(C2CCC(=O)NC2=O)C3=O)CC1 (stereo partly drawn) [Compound 683A, 3-(4-((2-cyclopropylethyl)((1s,4s)-4-((3,3-difluoropropyl)(methyl)amino)cyclohexyl)amino)-1-oxoisoindolin-2-yl)piperidine-2,6-dione bis(2,2,2-trifluoroacetate)]
25 | – | < 100 nM | O=C1CCC(N2Cc3c(cccc3N(CCC3CC3)[C@H]3CC[C@@H](CNCCC(F)(F)F)CC3)C2=O)C(=O)N1 (stereo partly drawn) [Compound 708A, 3-(4-((2-cyclopropylethyl)((1s,4s)-4-(((3,3,3-trifluoropropyl)amino)methyl)cyclohexyl)amino)-1-oxoisoindolin-2-yl)piperidine-2,6-dione]
26 | – | > 1000 nM | O=C1CCC(N2Cc3c(cccc3N(CCC3CC3)[C@H]3CC[C@@H](N4CCC5(C4)CC5(F)F)CC3)C2=O)C(=O)N1 (stereo partly drawn) [Compound 711A, 3-(4-((2-cyclopropylethyl)((1s,4s)-4-(1,1-difluoro-5-azaspiro[2.4]heptan-5-yl)cyclohexyl)amino)-1-oxoisoindolin-2-yl)piperidine-2,6-dione 2,2,2-trifluoroacetate]
27 | – | > 1000 nM | O=C1CCC(N2Cc3c(cccc3N(CCC3CC3)[C@H]3CC[C@@H](N4CC[C@H](C(F)(F)F)C4)CC3)C2=O)C(=O)N1 (stereo partly drawn) [Compound 712A, 3-(4-((2-cyclopropylethyl)((1R,4s)-4-((S)-3-(trifluoromethyl)pyrrolidin-1-yl)cyclohexyl)amino)-1-oxoisoindolin-2-yl)piperidine-2,6-dione 2,2,2-trifluoroacetate]
